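Step 1: Grow cells in 96-well plates. Step 2: Expose to compound for 48 hours at 5 concentrations. Step 3: Interpolate endpoints linearly; if unreached, use highest concentration. GI50: concentration for 50% inhibition of growth. TGI marks complete inhibition of growth.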
Tests used:
Assay in all cases: NCI-60 cell line screen, 48 h
IGROV1 ovarian = tested on: IGROV1 ovarian
NCI-H460 lung = tested on: NCI-H460 lung
CCRF-CEM leukemia = tested on: CCRF-CEM leukemia
NCI-H522 lung = tested on: NCI-H522 lung
SF-268 CNS = tested on: SF-268 CNS
OVCAR-3 ovarian = tested on: OVCAR-3 ovarian
MDA-MB-435 = tested on: MDA-MB-435
K-562 leukemia = tested on: K-562 leukemia
DLD-1 colon = tested on: DLD-1 colon
M19-MEL melanoma = tested on: M19-MEL melanoma

Structure (SMILES)	TGI (IGROV1 ovarian) [µM]	TGI (NCI-H460 lung) [µM]	TGI (CCRF-CEM leukemia) [µM]	TGI (NCI-H522 lung) [µM]	TGI (SF-268 CNS) [µM]	TGI (OVCAR-3 ovarian) [µM]	TGI (MDA-MB-435) [µM]	TGI (K-562 leukemia) [µM]	TGI (DLD-1 colon) [µM]	TGI (M19-MEL melanoma) [µM]	GI50 (IGROV1 ovarian) [µM]	GI50 (NCI-H460 lung) [µM]	GI50 (CCRF-CEM leukemia) [µM]	GI50 (NCI-H522 lung) [µM]	GI50 (SF-268 CNS) [µM]	GI50 (OVCAR-3 ovarian) [µM]	GI50 (MDA-MB-435) [µM]	GI50 (K-562 leukemia) [µM]
CCOC(=O)c1ccc(NC(=O)Oc2ccc3c(C)cc(=O)oc3c2)cc1	> 100	> 100	58.4	66.7	> 100	> 100	> 100	66.7	–	–	–	–	–	–	–	–	–	–
O=C1CCC2(c3ccc(Cl)cc3)Nc3ncccc3N12 (stereo unspecified)	> 100	> 100	> 100	> 100	> 100	> 100	–	> 100	> 100	> 100	–	–	–	–	–	–	–	–
COc1cccc(CC(C)=C(c2ccc(OCCN(C)C)cc2)c2ccc(OCCN(C)C)cc2)c1	8.73	7.38	2.23	7.95	8.69	3.42	1.37	1.77	–	–	3.98	2.83	0.693	2.86	4.03	1.18	0.682	0.614
CCCCCCCCCCCCCC(=O)OCC(C[As](=O)(O)O)OC(=O)CCCCCCCCCCCCC (stereo unspecified)	> 100	> 100	> 100	> 100	> 100	> 100	–	> 100	> 100	–	–	–	–	–	–	–	–	–
COc1cc(C(=O)N2CCN(C=O)C2=S)cc(OC)c1OC	57.3	> 100	49	20.8	43.7	33.6	30.8	> 100	–	–	21.9	34	18.3	5.8	21.4	16.9	15.5	30.8
CC(C)(C)NNC(=O)CCn1[nH]c(=O)c(Cl)c(Cl)c1=O	> 100	> 100	> 100	> 100	> 100	> 100	–	> 100	> 100	> 100	–	–	–	–	–	–	–	–
CC(C)CCC1CC2C(=O)N(c3ccccc3)C(=O)C2c2[nH]c3ccccc3c21 (stereo unspecified)	28.4	12.2	16.8	–	13.5	7.63	–	10.7	15	20	–	–	–	–	–	–	–	–
c1ccc(-c2nnc(-c3ccccn3)s2)nc1	> 100	> 100	> 100	> 100	> 100	> 100	> 100	> 100	–	–	27.3	> 100	> 100	> 100	> 100	> 100	> 100	> 100
COC(=O)c1ccc2c(c1)nc(NC(=O)c1ccccc1)n2CCCc1ccccc1	> 100	> 100	> 100	99.3	> 100	> 100	> 100	> 100	–	–	5.01	1.22	1.86	3.58	3.93	7.29	3.4	3.26
O=C(O)COc1ccc2c(=O)c3sc4c(=O)c5ccccc5c(=O)c4c3c(=O)c2c1	48.3	10.4	62.9	53.4	48.9	33.9	3.35	95.1	–	–	18.3	3.51	23.6	19.3	14.8	13.5	1.78	25.6
COc1ccc(OC)c2c1[nH]c(=O)c1c3ccccc3cn21	1.43	2.73	3.81	3.48	3.04	3.31	3.13	3.12	–	–	< 0.0281	1.1	1.17	1.7	1.42	1.64	1.62	0.692
CC[As](CC)SC[C@H](C)C(=O)N1CCC[C@H]1C(=O)O	1.11	2.17	0.0573	0.0482	1	0.0347	0.114	0.0615	–	–	0.214	0.418	0.017	0.0189	0.249	0.0135	0.0305	< 0.01
NC(=S)N/N=C/C(=O)O	> 100	> 100	> 100	> 100	> 100	> 100	> 100	> 100	–	–	43.6	> 100	65.4	> 100	> 100	31.7	> 100	27
Cn1cc(C2=C(c3ccc(N)cc3)C(=O)NC2=O)c2ccccc21	> 25	> 25	> 25	> 25	> 25	> 25	24.4	> 25	–	–	> 23.7	23.3	12.3	15.4	20.1	14.3	5.71	9.71
Cc1cc(C)c2c(n1)sc1c(Nc3ccc(Cl)cc3)ncnc12	> 100	> 100	> 100	> 100	> 100	> 100	> 100	> 100	–	–	> 100	< 0.01	< 0.01	< 0.01	< 0.01	2.39	< 0.01	0.0154
O=C(Nc1ccc(Nc2ccncc2)cc1)c1ccc([N+](=O)[O-])cc1	36.9	16.5	–	34.6	27.5	3.76	21.2	> 28.2	–	–	13	4.24	3.37	12.5	6.79	1.93	5.47	3.11
COc1ccccc1/C=N\N/C(N)=N\N=C\c1ccccc1OC	–	4.37	2.08	–	26.9	0.393	0.0824	1.7	–	–	0.923	0.348	0.323	0.956	0.432	0.157	0.0235	0.263

Source: PubChem BioAssay (NCI)
